Test results reported in PMC5123592 (Nature chemistry, 2016).

Experiments:
ZMPSTE24 [1] = target: T1, ZMPSTE24 (Homo sapiens, UniProt O75844); test: native mass spectrometry; assay type: binding; conditions: 15 μM drug, equimolar ZMPSTE24, C8E4
T1 sequence (O75844 1-475): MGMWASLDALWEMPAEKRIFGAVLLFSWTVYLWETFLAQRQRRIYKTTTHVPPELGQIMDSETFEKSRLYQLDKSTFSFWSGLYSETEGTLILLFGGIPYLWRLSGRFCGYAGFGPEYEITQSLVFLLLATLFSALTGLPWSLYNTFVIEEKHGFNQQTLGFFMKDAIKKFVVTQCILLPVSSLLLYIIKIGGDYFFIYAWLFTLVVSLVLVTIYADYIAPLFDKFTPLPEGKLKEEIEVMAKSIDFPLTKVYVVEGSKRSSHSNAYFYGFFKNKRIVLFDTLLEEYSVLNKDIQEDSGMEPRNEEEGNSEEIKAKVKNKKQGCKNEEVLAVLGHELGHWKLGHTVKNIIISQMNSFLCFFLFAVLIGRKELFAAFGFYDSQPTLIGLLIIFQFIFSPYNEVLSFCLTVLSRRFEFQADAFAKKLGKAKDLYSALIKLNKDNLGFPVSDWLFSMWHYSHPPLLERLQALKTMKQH

ZMPSTE24 [2] = target: T1, ZMPSTE24; test: native mass spectrometry titration; assay type: binding

Structure (SMILES)	binding observed at 15 μM (ZMPSTE24 [1])	Kd (ZMPSTE24 [2]) [µM]
CC(C)CN(C[C@@H](O)[C@H](Cc1ccccc1)NC(=O)O[C@H]1CCOC1)S(=O)(=O)c1ccc(N)cc1 [amprenavir]	binding of amprenavir and ritonavir were observed, albeit in lower amounts	
Cc1cccc(C)c1OCC(=O)N[C@@H](Cc1ccccc1)[C@@H](O)C[C@H](Cc1ccccc1)NC(=O)[C@H](C(C)C)N1CCCNC1=O [lopinavir]		25 ± 1.2
